The values below come from US20230295109A1, “PYRIDINONE COMPOUNDS FOR THE TREATMENT OF AUTOIMMUNE DISEASE” (F. Hoffmann-La Roche AG, priority 2020, published 2023).

Data set [1] concerns the target T1, human TLR8 (Homo sapiens, UniProt Q9NR97).
T1 construct: host or cells: HEK293 (HEK-Blue hTLR8)
T1 sequence (Q9NR97 27-1041): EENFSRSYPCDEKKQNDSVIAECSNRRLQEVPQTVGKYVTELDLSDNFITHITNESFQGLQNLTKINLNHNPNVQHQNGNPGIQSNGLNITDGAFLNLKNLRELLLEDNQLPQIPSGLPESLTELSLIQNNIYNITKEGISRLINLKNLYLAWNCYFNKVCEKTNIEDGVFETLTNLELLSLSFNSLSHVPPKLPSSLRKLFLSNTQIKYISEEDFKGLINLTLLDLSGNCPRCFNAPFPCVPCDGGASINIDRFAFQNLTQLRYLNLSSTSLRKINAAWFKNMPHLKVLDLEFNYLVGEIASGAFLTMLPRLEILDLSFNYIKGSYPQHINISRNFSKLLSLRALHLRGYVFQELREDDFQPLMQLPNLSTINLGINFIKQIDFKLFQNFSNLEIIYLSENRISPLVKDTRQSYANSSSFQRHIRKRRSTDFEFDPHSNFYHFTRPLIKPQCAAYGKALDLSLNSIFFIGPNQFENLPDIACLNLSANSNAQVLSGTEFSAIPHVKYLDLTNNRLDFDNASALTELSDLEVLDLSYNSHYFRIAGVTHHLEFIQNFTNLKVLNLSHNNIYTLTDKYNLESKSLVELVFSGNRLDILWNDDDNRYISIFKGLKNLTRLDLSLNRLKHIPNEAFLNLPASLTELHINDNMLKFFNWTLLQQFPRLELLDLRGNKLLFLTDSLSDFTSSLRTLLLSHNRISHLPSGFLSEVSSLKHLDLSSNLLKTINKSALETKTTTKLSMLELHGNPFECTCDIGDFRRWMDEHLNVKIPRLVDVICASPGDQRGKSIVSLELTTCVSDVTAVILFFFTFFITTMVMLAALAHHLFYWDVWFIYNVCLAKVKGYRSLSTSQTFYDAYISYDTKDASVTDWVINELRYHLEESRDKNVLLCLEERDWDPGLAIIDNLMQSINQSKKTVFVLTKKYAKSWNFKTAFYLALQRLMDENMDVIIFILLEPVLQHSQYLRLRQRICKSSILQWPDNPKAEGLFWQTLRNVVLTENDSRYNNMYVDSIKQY
Put plainly: HEK293-Blue-hTLR-8 cells assay. The format is cell-based. To be noted: HEK293-Blue-hTLR8 cells, R848 stimulation, 20 hrs, SEAP reporter; read-out: HEK/hTLR8 IC50. The text has this:
A stable HEK293-Blue-hTLR-8 cell line was purchased from InvivoGen (Cat.#: hkb-htlr8, San Diego, California, USA). These cells were originally designed for studying the stimulation of human TLR8 by monitoring the activation of NF-κB. A SEAP (secreted embryonic alkaline phosphatase) reporter gene was placed under the control of the IFN-β minimal promoter fused to five NF-κB and AP-1-binding sites. The SEAP was induced by activating NF-κB and AP-1 via stimulating HEK-Blue hTLR8 cells with TLR8 ligands. Therefore the reporter expression was declined by TLR8 antagonist under the stimulation of a ligand, such as R848, for incubation of 20 hrs. The cell culture supernatant SEAP reporter activity was determined using QUANTI-Blue™ kit (Cat.#: rep-qb1, Invivogen, San Diego, Ca, USA) at a wavelength of 640 nm, a detection medium that turns purple or blue in the presence of alkaline phosphatase.
HEK293-Blue-hTLR8 cells were incubated at a density of 250,000~450,000 cells/mL in a volume of 170 µL in a 96-well plate in Dulbecco’s Modified Eagle’s medium (DMEM) containing 4.5 g/L glucose, 50 U/mL penicillin, […], […], 2 mM L-glutamine, 10% (v/v) heat-inactivated fetal bovine serum with addition of 20 µL test compound in a serial dilution in the presence of final DMSO at 1% and 10 µL of 60uM R848 in above DMEM, perform incubation under 37° C. in a CO2 incubator for 20 hrs. Then 20 µL of the supernatant from each well was incubated with 180 µL Quanti-blue substrate solution at 37° C. for 2 hrs and the absorbance was read at 620 \~655 nm using a spectrophotometer. The signaling pathway that TLR8 activation leads to downstream NF-κB activation has been widely accepted, and therefore similar reporter assay was modified for evaluating TLR8 antagonist.

Data set [2] can be described thus: Human microsome stability assay. To be noted: 1 µM test compound, 0.5 mg/mL liver microsomal protein, 37° C., pH 7.4. It is filed as in vitro ADME. How it is done: The human microsomal stability assay is used for early assessment of metabolic stability of a test compound in human liver microsomes.
Human liver microsomes (Cat.NO.: 452117, Corning, USA;Cat.NO.:H2610, Xenotech, USA) were preincubated with test compound for 10 minutes at 37° C. in 100 mM potassium phosphate buffer, pH 7.4. The reactions were initiated by adding NADPH regenerating system. The final incubation mixtures contained 1 µM test compound, 0.5 mg/mL liver microsomal protein, 1 mM MgCl2, 1 mM NADP, 1 unit/mL isocitric dehydrogenase and 6 mM isocitric acid in 100 mM potassium phosphate buffer, pH 7.4. After incubation times of 0, 3, 6, 9, 15 and 30 minutes at 37° C., 300 µL of cold acetonitrile (including internal standard) was added to 100 µL incubation mixture to terminate the reaction. Following precipitation and centrifugation, the amount of compound remaining in the samples were determined by LC-MS/MS. Controls of no NADPH regenerating system at zero and 30 minutes were also prepared and analyzed.

pIC50: −log10 of the molar value.

`Cc1cc(-c2ccc(N3CCN(Cc4cccc(N5CCNCC5)c4)CC3)nc2C(C)C)cn(C)c1=O` [Example 14, 5-[2-isopropyl-6-[4-[(3-piperazin-1-ylphenyl)methyl]piperazin-1-yl]-3-pyridyl]-1,3-dimethyl-pyridin-2-one]: in data set [1], the pIC50 was 9.52. Besides, in data set [2], the “Clearance of Human microsome” value worked out at 8.3 mL/min/kg.
The matching figures for `Cc1cc(-c2ccc(N3CCN(Cc4cnc(N5CCNCC5)nc4)CC3)nc2C(C)C)cn(C)c1=O` [Example 9, 5-[2-isopropyl-6-[4-[(2-piperazin-1-ylpyrimidin-5-yl)methyl]piperazin-1-yl]-3-pyridyl]-1,3-dimethyl-pyridin-2-one]: 9.52 and 7.8 mL/min/kg.
